Source: US12661348B2, “Systemic formulation of a pyridinone derivate for TG2-related diseases” (Dr. Falk Pharma GmbH, priority 2020, dated 2026)

What was measured:
TG2 = target: T1, TG2 (Mus musculus, UniProt P21981); assay: Immune-histochemical localisation of the complex of compound and TG2 in kidney tissue of UUO-mice; type: in vivo, C57BL/6-mouse; details: oral, different dosages, compound-specific antibody
T1 construct: The immune-histochemical localisation of the complex of compound of formula (I) and TG2 in the kidney tissue; from tissue; host or cells: kidney tissue of UUO C57BL/6 mice
T1 sequence (P21981 1-686): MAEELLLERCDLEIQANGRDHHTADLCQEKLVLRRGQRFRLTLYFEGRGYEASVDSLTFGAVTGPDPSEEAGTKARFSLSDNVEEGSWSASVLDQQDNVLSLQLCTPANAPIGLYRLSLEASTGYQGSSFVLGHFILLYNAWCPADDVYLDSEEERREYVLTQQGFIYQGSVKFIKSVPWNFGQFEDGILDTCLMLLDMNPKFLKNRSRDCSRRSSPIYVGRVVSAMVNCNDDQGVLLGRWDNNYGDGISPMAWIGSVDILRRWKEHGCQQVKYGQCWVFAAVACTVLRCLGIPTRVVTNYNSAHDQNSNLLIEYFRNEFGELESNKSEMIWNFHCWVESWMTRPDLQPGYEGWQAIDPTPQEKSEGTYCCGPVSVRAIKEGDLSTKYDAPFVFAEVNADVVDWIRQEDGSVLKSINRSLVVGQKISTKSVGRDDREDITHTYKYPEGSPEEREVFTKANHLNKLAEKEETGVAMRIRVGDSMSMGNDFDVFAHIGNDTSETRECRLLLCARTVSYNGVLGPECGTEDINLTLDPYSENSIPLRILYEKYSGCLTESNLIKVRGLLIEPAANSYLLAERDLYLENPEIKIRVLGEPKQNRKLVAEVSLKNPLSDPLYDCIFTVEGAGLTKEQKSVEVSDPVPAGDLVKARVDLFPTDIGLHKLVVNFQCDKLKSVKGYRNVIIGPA
Procedure: Groups of 8 UUO-mice were treated directly after ligation of the ureter over a time period of two weeks with three different dosages of said compound: 100 mg/kg body weight, 300 mg/kg body weight, and 1000 mg/kg body weight. The daily dosage was administered orally as a suspension at intervals of 8 hours. In a control group, the UUO-mice were treated in same way but merely with the vehicle methyl cellulose. After the end of the treatment, the histopathological investigation of the kidney tissue as well as the determination of the amount of hydroxyproline in the kidney was performed. Furthermore, an immune-histochemical localisation of the complex of (S,E)-methyl-7-(1-(2-(2-ethylbutylamino)-2-oxoethyl)-2-oxo-1,2-dihydro-pyridin-3-ylamino)-6-(1-methyl-1H-imidazole-5-carboxamido)-7-oxohept-2-enoate and TG2 by means of (S,E)-methyl-7-(1-(2-(2-ethylbutylamino)-2-oxoethyl)-2-oxo-1,2-dihydro-pyridin-3-ylamino)-6-(1-methyl-1H-imidazole-5-carboxamido)-7-oxohept-2-enoate-specific antibody was carried out.

[1] = tested on: adult patients with Celiac Disease (CeD); assay: 6-week treatment of Celiac Disease patients under gluten challenge: ALT, AST, ALP levels; type: in vivo, human; details: for ALP, Change from baseline / ALT, Change from baseline / AST, Change from baseline / ALP, Difference versus placebo / ALT, Difference versus placebo / AST, Difference versus placebo: baseline to week 6; for Mean alanine aminotransferase (ALT) level, Baseline / Mean alkaline phosphatase (ALP) level, Baseline / Mean aspartate aminotransferase (AST) level, Baseline / Mean ALP level, Week 6 / Mean ALT level, Week 6 / Mean AST level, Week 6: safety population
Procedure: (§1) The efficacy and safety of a 6-week treatment with the compound of formula (I) in the hard gelatine capsule formulation described in example 2 was investigated in 160 adult patients with Celiac Disease (CeD). Patients, who were in clinical and histological remission at start of the study were challenged with 3 grams daily gluten intake and randomized to receive placebo or one of 3 doses of the compound of formula (I), i.e. 10 mg, 50 mg or 100 mg. Each morning after at least 6 hours of fasting, patients took the study drug orally, followed by one biscuit containing 3 g of gluten 30 minutes later, before breakfast. Throughout the 6-week study, patients were required to continue their strict gluten free diet.
as §1, with “described in the example 2” for “described in example 2”, “gluten free diet (see FIG. 12).” for “gluten free diet.”

[2] = tested on: UUO-model in the C57BL/6-mouse; assay: Unilateral ureteral obstruction model (UUO-model) for nephritic fibrosis; type: in vivo; details: 100, 300, 1000 mg/kg body weight daily, oral suspension, two weeks
Description: The anti-fibrotic effect of (S,E)-methyl-7-(1-(2-(2-ethylbutylamino)-2-oxoethyl)-2-oxo-1,2-dihydro-pyridin-3-ylamino)-6-(1-methyl-1H-imidazole-5-carboxamido)-7-oxohept-2-enoate (compound of formula (I)) in the kidney was investigated in an UUO-model in the C57BL/6-mouse. In a UUO-model, in one of the kidneys fibrosis is induced by ligation of one ureter. The other kidney remains functional. The pathophysiology of the UUO-model resembles the chronic nephropathy in humane (Chronic Kidney Disease, CKD).
Groups of 8 UUO-mice were treated directly after ligation of the ureter over a time period of two weeks with three different dosages of said compound: 100 mg/kg body weight, 300 mg/kg body weight, and 1000 mg/kg body weight. The daily dosage was administered orally as a suspension at intervals of 8 hours. In a control group, the UUO-mice were treated in same way but merely with the vehicle methyl cellulose. After the end of the treatment, the histopathological investigation of the kidney tissue as well as the determination of the amount of hydroxyproline in the kidney was performed. […]

CCC(CC)CNC(=O)Cn1cccc(NC(=O)[C@H](CC/C=C/C(=O)OC)NC(=O)c2cncn2C)c1=O [compound of formula (I), (S,E)-methyl-7-(1-(2-(2-ethylbutylamino)-2-oxoethyl)-2-oxo-1,2-dihydro-pyridin-3-ylamino)-6-(1-methyl-1H-imidazole-5-carboxamido)-7-oxohept-2-enoate]
immune-histochemical localisation of the complex of compound and TG2 in the kidney tissue (TG2): reach the target site and inhibits the target molecule
ALP, Change from baseline ([1]; 10 mg (N = 41)): −1.0 U/L
ALT, Change from baseline ([1]; 10 mg (N = 41)): −0.5 U/L
AST, Change from baseline ([1]; 10 mg (N = 41)): 0 U/L
Mean alanine aminotransferase (ALT) level, Baseline ([1]; 10 mg (N = 41)): 20.5 U/L
Mean alkaline phosphatase (ALP) level, Baseline ([1]; 10 mg (N = 41)): 60.0 U/L
Mean aspartate aminotransferase (AST) level, Baseline ([1]; 10 mg (N = 41)): 22.5 U/L
Mean ALP level, Week 6 ([1]; 10 mg (N = 41)): 59.3 U/L
Mean ALT level, Week 6 ([1]; 10 mg (N = 41)): 20.0 U/L
Mean AST level, Week 6 ([1]; 10 mg (N = 41)): 22.5 U/L
Mean ALT level, Week 10 (Follow-up) ([1]; 10 mg (N = 41)): 19.7 U/L
Mean AST level, Week 10 (Follow-up) ([1]; 10 mg (N = 41)): 20.6 U/L
ALP, Difference versus placebo ([1]; 10 mg versus placebo): −2.6 U/L
ALT, Difference versus placebo ([1]; 10 mg versus placebo, P value 0.0019): −4.4 U/L
AST, Difference versus placebo ([1]; 10 mg versus placebo, P value 0.0448): −3.2 U/L
ALP, Change from baseline ([1]; 50 mg (N = 41)): −0.5 U/L
ALT, Change from baseline ([1]; 50 mg (N = 41)): 0.8 U/L
AST, Change from baseline ([1]; 50 mg (N = 41)): 1.0 U/L
Mean alanine aminotransferase (ALT) level, Baseline ([1]; 50 mg (N = 41)): 21.4 U/L
Mean alkaline phosphatase (ALP) level, Baseline ([1]; 50 mg (N = 41)): 57.8 U/L
Mean aspartate aminotransferase (AST) level, Baseline ([1]; 50 mg (N = 41)): 22.6 U/L
Mean ALP level, Week 6 ([1]; 50 mg (N = 41)): 57.3 U/L
Mean ALT level, Week 6 ([1]; 50 mg (N = 41)): 22.2 U/L
Mean AST level, Week 6 ([1]; 50 mg (N = 41)): 23.6 U/L
Mean ALT level, Week 10 (Follow-up) ([1]; 50 mg (N = 41)): 21.7 U/L
Mean AST level, Week 10 (Follow-up) ([1]; 50 mg (N = 41)): 21.9 U/L
ALP, Difference versus placebo ([1]; 50 mg versus placebo): −2.8 U/L
ALT, Difference versus placebo ([1]; 50 mg versus placebo, P value 0.0069): −3.8 U/L
AST, Difference versus placebo ([1]; 50 mg versus placebo, P value 0.1423): −2.2 U/L
ALP, Change from baseline ([1]; 100 mg (N = 40)): −0.5 U/L
ALT, Change from baseline ([1]; 100 mg (N = 40)): −2.6 U/L
AST, Change from baseline ([1]; 100 mg (N = 40)): −0.4 U/L
Mean alanine aminotransferase (ALT) level, Baseline ([1]; 100 mg (N = 40)): 26.3 U/L
Mean alkaline phosphatase (ALP) level, Baseline ([1]; 100 mg (N = 40)): 62.7 U/L
Mean aspartate aminotransferase (AST) level, Baseline ([1]; 100 mg (N = 40)): 26.8 U/L
Mean ALP level, Week 6 ([1]; 100 mg (N = 40)): 62.3 U/L
Mean ALT level, Week 6 ([1]; 100 mg (N = 40)): 23.7 U/L
Mean AST level, Week 6 ([1]; 100 mg (N = 40)): 26.5 U/L
Mean ALT level, Week 10 (Follow-up) ([1]; 100 mg (N = 40)): 23.9 U/L
Mean AST level, Week 10 (Follow-up) ([1]; 100 mg (N = 40)): 24.3 U/L
ALP, Difference versus placebo ([1]; 100 mg versus placebo): −2.8 U/L
ALT, Difference versus placebo ([1]; 100 mg versus placebo, P value 0.0022): −4.3 U/L
AST, Difference versus placebo ([1]; 100 mg versus placebo, P value 0.8551): 0.3 U/L
elevation of alanine aminotransferase (ALT) from baseline to week 6 ([1]; 10, 50, 100 mg groups, gluten challenge, elevation seen in placebo group): not observed
difference between each drug group and placebo in ALT ([1]; P<0.01 for all comparisons): statistically significant
levels of AST, ALT, total protein ([1]; oral, doses of 10, 50 and 100 mg in human): significantly reduced
hydroxyproline content in the kidney [2]: remained unaffected
fibrotic area of the kidney ([2]; versus vehicle control): significant, marked, dosage dependent reduction
